Reference: patent publication US10017527B2, “KLK4 inhibitors” (Universiteit Antwerpen, priority 2014, dated 2018)
Read-outs that look alike come from different tables or passages of the source.

How the values were obtained:
Type in all cases: biochemical
KLK8 (human) = target: T1, KLK8 (human) (Homo sapiens, UniProt O60259); test: KLK8 inhibition, fluorogenic substrate Boc-Val-Pro-Arg-AMC
T1 construct: purchased Viktor Magdolen, TUMunich (TUM), supplied by an academic laboratory
T1 sequence (O60259 33-260): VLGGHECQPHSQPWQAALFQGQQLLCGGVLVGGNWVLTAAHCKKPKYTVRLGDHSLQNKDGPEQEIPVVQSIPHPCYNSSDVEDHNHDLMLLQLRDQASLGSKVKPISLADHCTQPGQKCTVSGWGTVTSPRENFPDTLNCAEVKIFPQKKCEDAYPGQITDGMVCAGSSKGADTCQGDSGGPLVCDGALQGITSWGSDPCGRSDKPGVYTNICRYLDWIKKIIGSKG
Excerpt: (§1) The IC50 values For KLK1, KLK2 and KLK8 were obtained in a similar way. For plasmin, tPA, thrombin, Fxa, HNE, Plasma kallikrein Chromogenic substrates were used (absorption: 405 nm). (KLK2, KLK4, KLK8 were supplied by Viktor Magdolen TUMunich (TUM)).

Plasmine (human plasma) = target: T2, Plasmine (human plasma) (Homo sapiens, UniProt P00747); test: Plasmin inhibition, chromogenic substrate Biophen CS-21(66)
T2 construct: purchased Sigma-Aldrich; host or cells: human plasma
Excerpt: as §1

uPA (recombinant) = target: T3, uPA (recombinant) (Homo sapiens, UniProt P00749); test: uPA inhibition, chromogenic substrate Biophen CS-61(44)
T3 construct: purchased Nodia

KLK1 (human) = target: T4, KLK1 (human) (Homo sapiens, UniProt P06870); test: KLK1 inhibition, fluorogenic substrate H-Pro-Phe-Arg-AMC
T4 construct: purchased Prospec
Excerpt: as §1

KLK2 (human) = target: T5, KLK2 (human) (Homo sapiens, UniProt P20151); test: KLK2 inhibition, fluorogenic substrate H-Pro-Phe-Arg-AMC
T5 construct: purchased Viktor Magdolen, TUMunich (TUM), supplied by an academic laboratory
Excerpt: as §1

KLK4 [1] = target: T6, KLK4 (Homo sapiens, UniProt Q9Y5K2); test: KLK4 enzymatic inhibition, fluorogenic substrate Boc-Val-Pro-Arg-AMC
T6 construct: purchased Viktor Magdolen (TUM), supplied by an academic laboratory
Experimental: The substrate was obtained form Bachem and the enzyme was provided by Viktor Magdolen (TUM). The reaction was monitored with an excitation wavelength of 355 nm and emission wavelength of 460 nm. The initial rate was determined between 2500000 and 4500000 mRFU/min. The reaction mixture contained 25 μM substrate and approximately 1 mU of enzyme in 145 μL of buffer in a final volume of […]. A 50 mM Tris buffer, pH 8.3, was used. From each inhibitor concentration, 5 μL was added, obtaining a final concentration from 0 to 250 μM in a total volume of 0.2 mL. Activity measurements were routinely performed in duplicate. […] IC50 values were obtained by fitting the data with the four-parameter logistics equation using Grafit 7.
[formula] where s=slope factor, v=rate, I0=inhibitor concentration, and range=the fitted uninhibited value minus the background. The equation assumes they falls with increasing x.
(§2) Inhibitor stock solutions were prepared in DMSO and stored at −20° C. Because the compounds described in this paper completely inactivate KLK4 following pseudo first-order kinetics, the IC50 value is inversely correlated with the second-order rate constant of inactivation. For a simple pseudo first-order inactivation process, the activity after incubation with inhibitor (vi) varies with the inhibitor concentration (i), as described in the following equation: vi=v0×e^−k t, where vo is the activity in absence of inhibitor, k is the second-order rate constant of inactivation, and t is the time. The inactivation rate constant was determined from the time course of inhibition.

Matriptase = target: T7, Matriptase (Homo sapiens, UniProt Q9Y5Y6); test: Matriptase inhibition
T7 sequence (Q9Y5Y6 1-855): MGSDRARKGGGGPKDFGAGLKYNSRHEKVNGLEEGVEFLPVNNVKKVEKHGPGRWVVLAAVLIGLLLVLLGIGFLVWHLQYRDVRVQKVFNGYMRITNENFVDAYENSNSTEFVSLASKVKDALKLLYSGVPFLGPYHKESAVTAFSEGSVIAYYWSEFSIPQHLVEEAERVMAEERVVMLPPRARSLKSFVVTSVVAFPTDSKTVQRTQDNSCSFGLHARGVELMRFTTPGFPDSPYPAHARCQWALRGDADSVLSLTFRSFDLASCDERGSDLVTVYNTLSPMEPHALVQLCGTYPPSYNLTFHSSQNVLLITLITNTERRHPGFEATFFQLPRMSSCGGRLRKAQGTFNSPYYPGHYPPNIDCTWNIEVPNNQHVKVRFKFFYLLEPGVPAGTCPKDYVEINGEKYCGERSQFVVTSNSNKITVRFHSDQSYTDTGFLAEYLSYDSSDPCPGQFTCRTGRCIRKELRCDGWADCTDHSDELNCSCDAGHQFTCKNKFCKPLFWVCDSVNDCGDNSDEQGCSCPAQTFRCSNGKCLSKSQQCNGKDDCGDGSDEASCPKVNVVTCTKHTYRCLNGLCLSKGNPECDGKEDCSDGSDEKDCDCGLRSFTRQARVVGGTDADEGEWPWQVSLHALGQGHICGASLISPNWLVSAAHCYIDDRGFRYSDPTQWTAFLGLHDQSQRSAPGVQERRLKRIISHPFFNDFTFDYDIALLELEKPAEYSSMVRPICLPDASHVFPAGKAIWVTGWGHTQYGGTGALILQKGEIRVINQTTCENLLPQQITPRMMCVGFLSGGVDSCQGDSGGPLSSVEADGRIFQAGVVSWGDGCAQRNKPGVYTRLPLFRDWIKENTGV

KLK4 [2] = target: T6, KLK4; test: KLK4 inactivation kinetics from progress curves (kobs vs inhibitor concentration); conditions: for Irreversible (KLK4): irreversible binding to KLK4, Yes/No
Experimental: as §2
The inhibitor was mixed with the substrate (250 μM final concentration), and the buffer solution with the enzyme was added at the time zero. […] The progress curves show the absorbance of aminomethylcoumarine produced as a function of time. Initially, no inhibitor is bound to the enzyme, and the tangent to the progress curve (dA/dt) is proportional to the concentration of the free enzyme. The concentration of free enzyme decreases over time due to the kinetics of inhibitor binding, as described above. Progress curves were recorded in pseudo first-order conditions ([I]0>>[E]0) and with less than 10% conversion of the substrate during the entire time course. In these conditions, dA/dt decreases exponentially with time. The progress curves were fitted with the integrated rate equation to yield a value for kobs, a pseudofirst-order rate constant At=v0[1−e^−k^obs^t]/kobs+A0 where At=absorbance at time t, A0=absorbance at time zero, and v0=uninhibited initial rate.
The apparent second-order rate constant (kapp) was calculated from the slope of the linear part of the plot of kobs versus the inhibitor concentration ([I]0). In case of competition between the inhibitor and the substrate, kapp is smaller than the “real” second order rate constant k discussed above because a certain fraction of the enzyme is present as an enzyme-substrate complex. kapp depends on the substrate concentration used in the experiment, as described by Lambeir et al. (Lambeir, Borloo et al. 1996).

Thrombine (human plasma) = target: T8, Thrombine (human plasma) (Homo sapiens, UniProt P00734); test: Thrombin inhibition, chromogenic substrate Biophen CS-21(66)
T8 construct: purchased Sigma-Aldrich; host or cells: human plasma

tPA (recombinant) = target: T9, tPA (recombinant) (Homo sapiens, UniProt P00750); test: tPA inhibition, chromogenic substrate Biophen CS-05(88); conditions: Tris buffer pH 8.3; read-out: IC50 tPA
T9 construct: purchased Nodia
Excerpt: as §1

PlasmaKLK (human plasma) = target: T10, PlasmaKLK (human plasma) (Homo sapiens, UniProt P03952); test: Plasma kallikrein inhibition, chromogenic substrate Biophen CS-31(02); conditions: Plasma KLK; Tris buffer pH 7.8; read-out: IC50 pKLK
T10 construct: purchased Sigma-Aldrich; host or cells: human plasma
Excerpt: as §1

FXa = target: T11, FXa (Homo sapiens, UniProt P00742); test: FXa inhibition, chromogenic substrate Biophen CS-11(32); conditions: Tris buffer pH 8.3; read-out: IC50 FXa
T11 construct: purchased Nodia
Excerpt: as §1

[3] = Plasmin, Tris buffer pH 7.4, read-out: IC50 PLM
[4] = Tris buffer pH 8.8, read-out: IC50 uPA
[5] = Thrombin, Tris buffer pH 8.3, read-out: IC50 THR
[6] = 15 min pre-incubation at 37° C., Tris buffer pH 8.3, read-out: IC50 KLK4
[7] = Tris buffer pH 7.8, read-out: IC50 KLK1

T10 sequence (P03952 391-638 limits assumed): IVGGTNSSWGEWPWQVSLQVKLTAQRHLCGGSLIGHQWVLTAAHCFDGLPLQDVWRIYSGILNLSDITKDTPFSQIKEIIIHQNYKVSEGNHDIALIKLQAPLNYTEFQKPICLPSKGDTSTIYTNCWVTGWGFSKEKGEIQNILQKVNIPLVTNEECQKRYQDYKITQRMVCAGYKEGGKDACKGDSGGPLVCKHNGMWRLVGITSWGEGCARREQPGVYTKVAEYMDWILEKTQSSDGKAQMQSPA
T10 sequence (P03952 20-390 partner limits assumed): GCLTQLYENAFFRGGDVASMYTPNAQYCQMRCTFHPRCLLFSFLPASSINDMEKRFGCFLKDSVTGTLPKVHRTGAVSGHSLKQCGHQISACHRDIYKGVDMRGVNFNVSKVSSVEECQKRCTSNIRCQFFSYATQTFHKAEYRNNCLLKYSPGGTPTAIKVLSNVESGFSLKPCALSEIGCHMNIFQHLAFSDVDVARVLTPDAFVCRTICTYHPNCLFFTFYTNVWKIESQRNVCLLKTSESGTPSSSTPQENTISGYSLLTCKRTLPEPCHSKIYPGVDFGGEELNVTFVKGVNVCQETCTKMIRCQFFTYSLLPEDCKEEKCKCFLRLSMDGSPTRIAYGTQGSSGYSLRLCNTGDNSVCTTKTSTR
T6 sequence (Q9Y5K2 31-254): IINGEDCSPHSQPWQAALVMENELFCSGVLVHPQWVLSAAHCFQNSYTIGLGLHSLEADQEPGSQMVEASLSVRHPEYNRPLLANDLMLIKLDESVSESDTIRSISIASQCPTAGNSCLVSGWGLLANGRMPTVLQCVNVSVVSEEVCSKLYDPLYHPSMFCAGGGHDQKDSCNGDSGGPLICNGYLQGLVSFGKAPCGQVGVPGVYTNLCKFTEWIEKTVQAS
T2 sequence (P00747 581-810 limits assumed): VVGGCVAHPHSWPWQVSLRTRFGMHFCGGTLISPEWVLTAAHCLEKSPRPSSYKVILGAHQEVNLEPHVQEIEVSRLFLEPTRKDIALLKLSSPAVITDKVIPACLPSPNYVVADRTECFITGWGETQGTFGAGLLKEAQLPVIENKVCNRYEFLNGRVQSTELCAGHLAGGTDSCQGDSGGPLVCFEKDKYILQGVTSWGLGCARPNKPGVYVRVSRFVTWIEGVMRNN
T2 sequence (P00747 98-580 partner limits assumed): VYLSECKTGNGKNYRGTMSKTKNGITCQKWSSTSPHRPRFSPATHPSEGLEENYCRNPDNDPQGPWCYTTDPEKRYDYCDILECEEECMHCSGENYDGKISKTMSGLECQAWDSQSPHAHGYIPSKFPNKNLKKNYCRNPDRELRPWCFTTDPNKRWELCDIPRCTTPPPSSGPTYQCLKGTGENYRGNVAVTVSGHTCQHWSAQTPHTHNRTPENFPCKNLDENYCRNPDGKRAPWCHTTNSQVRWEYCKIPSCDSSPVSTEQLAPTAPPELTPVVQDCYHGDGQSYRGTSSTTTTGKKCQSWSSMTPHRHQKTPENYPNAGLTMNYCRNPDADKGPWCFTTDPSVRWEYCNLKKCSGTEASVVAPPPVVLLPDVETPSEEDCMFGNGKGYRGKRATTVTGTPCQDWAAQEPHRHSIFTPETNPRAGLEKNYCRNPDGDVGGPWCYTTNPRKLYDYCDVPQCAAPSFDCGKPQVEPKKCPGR
T5 sequence (P20151 25-261): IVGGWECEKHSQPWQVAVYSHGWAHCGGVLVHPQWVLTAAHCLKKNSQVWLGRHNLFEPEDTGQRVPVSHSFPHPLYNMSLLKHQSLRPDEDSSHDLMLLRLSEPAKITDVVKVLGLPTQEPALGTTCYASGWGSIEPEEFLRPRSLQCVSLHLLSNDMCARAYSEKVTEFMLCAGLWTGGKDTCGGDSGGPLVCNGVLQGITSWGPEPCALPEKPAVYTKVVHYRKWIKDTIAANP
T4 sequence (P06870 25-262): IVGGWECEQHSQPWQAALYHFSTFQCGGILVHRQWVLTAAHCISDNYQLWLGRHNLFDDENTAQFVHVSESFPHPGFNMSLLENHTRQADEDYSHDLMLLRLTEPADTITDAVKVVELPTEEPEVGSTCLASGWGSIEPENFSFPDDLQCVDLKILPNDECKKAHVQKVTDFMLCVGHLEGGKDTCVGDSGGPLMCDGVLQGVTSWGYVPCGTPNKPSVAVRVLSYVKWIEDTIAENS
T11 sequence (P00742 235-488 limits assumed): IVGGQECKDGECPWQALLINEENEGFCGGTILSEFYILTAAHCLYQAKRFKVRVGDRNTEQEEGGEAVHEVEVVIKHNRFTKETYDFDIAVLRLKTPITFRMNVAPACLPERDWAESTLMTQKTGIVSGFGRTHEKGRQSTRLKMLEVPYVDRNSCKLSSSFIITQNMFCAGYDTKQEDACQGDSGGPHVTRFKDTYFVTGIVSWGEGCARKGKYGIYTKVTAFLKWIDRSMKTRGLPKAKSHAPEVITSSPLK
T11 sequence (P00742 41-179 partner limits assumed): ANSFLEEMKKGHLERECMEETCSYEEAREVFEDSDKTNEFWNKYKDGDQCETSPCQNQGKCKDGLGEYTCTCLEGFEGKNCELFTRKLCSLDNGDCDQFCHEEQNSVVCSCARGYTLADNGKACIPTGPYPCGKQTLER
T9 sequence (P00750 36-562, species assumed): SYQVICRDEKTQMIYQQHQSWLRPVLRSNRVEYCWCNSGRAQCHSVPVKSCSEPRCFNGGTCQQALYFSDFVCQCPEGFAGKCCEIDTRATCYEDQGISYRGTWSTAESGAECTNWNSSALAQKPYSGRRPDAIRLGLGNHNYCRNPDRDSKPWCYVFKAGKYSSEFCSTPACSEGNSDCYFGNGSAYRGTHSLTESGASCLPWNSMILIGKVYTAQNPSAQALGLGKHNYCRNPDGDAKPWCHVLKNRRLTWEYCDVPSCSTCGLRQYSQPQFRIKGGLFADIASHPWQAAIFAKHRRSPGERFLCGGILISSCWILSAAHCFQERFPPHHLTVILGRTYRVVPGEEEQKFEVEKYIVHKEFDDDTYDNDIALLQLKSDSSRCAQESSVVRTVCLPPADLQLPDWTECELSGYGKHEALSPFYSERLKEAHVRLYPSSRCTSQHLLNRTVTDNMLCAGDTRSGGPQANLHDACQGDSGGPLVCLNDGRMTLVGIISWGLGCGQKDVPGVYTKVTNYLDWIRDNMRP

| Molecule | IC50 (KLK8 (human)) | IC50 (Plasmine (human plasma)) | IC50 (uPA (recombinant)) | IC50 (KLK1 (human)) | IC50 (KLK2 (human)) | IC50 (KLK4 [1]) | IC50 (Matriptase) | kapp KLK4 (KLK4 [2]; apparent second-order rate constant, substrate 250 μM) | Irreversible (KLK4) (KLK4 [2]) | IC50 (Plasmine (human plasma); [3]) | IC50 (uPA (recombinant); [4]) | IC50 (Thrombine (human plasma); [5]) | IC50 (tPA (recombinant)) | IC50 (KLK4 [1]; [6]) | IC50 (PlasmaKLK (human plasma)) | IC50 (FXa) | IC50 (KLK1 (human); [7]) | IC50 (Matriptase; Matriptase, read-out: IC50 MAT) | IC50 (Thrombine (human plasma)) |
| --- | --- | --- | --- | --- | --- | --- | --- | --- | --- | --- | --- | --- | --- | --- | --- | --- | --- | --- | --- |
| N=C(N)Nc1ccc(C(NC(=O)OCCCC(F)(F)F)P(=O)(Oc2ccccc2)Oc2ccccc2)cc1 (stereo not drawn) [Compound 107, 4,4,4-trifluorobutyl ((diphenoxyphosphoryl)(4-guanidinophenyl)methyl) carbamate] | 2500 to 10000 nM | 10 to 250 µM | 2500 to 10000 nM | 2500 to 10000 nM | 100 to 1000 nM | < 100 nM | 2500 to 10000 nM |  |  |  |  |  |  |  |  |  |  |  |  |
| CSCCOC(=O)NC(c1ccc(NC(=N)N)cc1)P(=O)(Oc1ccccc1)Oc1ccccc1 (stereo not drawn) [Compound 108, 2-(methylthio)ethyl ((diphenoxyphosphoryl)(4-guanidinophenyl)methyl) carbamate] | 1000 to 2500 nM | 10 to 250 µM | 2500 to 10000 nM | 1000 to 2500 nM | 100 to 1000 nM | < 100 nM | 2500 to 10000 nM |  |  |  |  |  |  |  |  |  |  |  |  |
| N=C(N)Nc1ccc(C(NC(=O)OCc2c(F)c(F)c(F)c(F)c2F)P(=O)(Oc2ccccc2)Oc2ccccc2)cc1 (stereo not drawn) [Compound 109, (perfluorophenyl)methyl ((diphenoxyphosphoryl)(4-guanidinophenyl)methyl) carbamate] | 1000 to 2500 nM | 10 to 250 µM | 2500 to 10000 nM | 100 to 1000 nM | 100 to 1000 nM | < 100 nM | 1000 to 2500 nM |  |  |  |  |  |  |  |  |  |  |  |  |
| COCCOCCOCCOC(=O)NC(c1ccc(NC(=N)N)cc1)P(=O)(Oc1ccccc1)Oc1ccccc1 (stereo not drawn) [Compound 110, 2-(2-(2-methoxyethoxy)ethoxy)ethyl ((diphenoxyphosphoryl)(4-guanidinophenyl)methyl)carbamate] | 1000 to 2500 nM | 10 to 250 µM | 2500 to 10000 nM | 2500 to 10000 nM |  | < 100 nM | 2500 to 10000 nM | 19600 M⁻¹ s⁻¹ | Yes/ |  |  |  |  |  |  |  |  |  |  |
| COCCOCCOC(=O)NC(c1ccc(NC(=N)N)cc1)P(=O)(Oc1ccc(NC(C)=O)cc1)Oc1ccc(NC(C)=O)cc1 (stereo not drawn) [Compound 114, 2-(2-methoxyethoxy)ethyl ((bis(4-acetamidophenoxy)phosphoryl)(4-guanidinophenyl)methyl) carbamate] | 1000 to 2500 nM | 10 to 250 µM | 2500 to 10000 nM | 2500 to 10000 nM | 100 to 1000 nM | < 100 nM | 1000 to 2500 nM |  |  |  |  |  |  |  |  |  |  |  |  |
| N=C(N)Nc1ccc(C(NS(=O)(=O)c2ccccc2)P(=O)(Oc2ccccc2)Oc2ccccc2)cc1 (stereo not drawn) [Compound 127, diphenyl ((4-guanidinophenyl)(phenylsulfonamido)methyl)phosphonate] |  |  |  |  |  |  |  |  |  | 2.5 to 10 µM | 2500 to 10000 nM | 2.5 to 10 µM | 2.5 to 10 µM | 2500 to 10000 nM | 2.5 to 10 µM | 2.5 to 10 µM |  |  |  |
| N=C(N)Nc1ccc(C(NS(=O)(=O)c2ccc(C(F)(F)F)cc2)P(=O)(Oc2ccccc2)Oc2ccccc2)cc1 (stereo not drawn) [Compound 130] |  |  |  |  |  |  |  |  |  |  |  |  |  | < 100 nM |  |  |  |  |  |
| N=C(N)Nc1ccc(C(NC(=O)OCCOCCOCc2cn(CCOCCOCCOCCNC(=O)CCCC[C@H]3SC[C@H]4NC(=O)N[C@H]43)nn2)P(=O)(Oc2ccccc2)Oc2ccccc2)cc1 (stereo partly drawn) [Compound 135, 2-(2-((1-(13-oxo-17-((3aR,4R,6aS)-2-oxohexahydro-1H-thieno[3,4-d]imidazol-4-yl)-3,6,9-trioxa-12-azaheptadecyl)-1H-1,2,3-triazol-4-yl)methoxy)ethoxy)ethyl ((diphenoxyphosphoryl)(4-guanidinophenyl)methyl)carbamate] |  |  |  |  |  |  |  |  |  | 10 to 250 µM | 2500 to 10000 nM | 10 to 250 µM |  | < 100 nM | 10 to 250 µM | 10 to 250 µM | 2500 to 10000 nM | 2500 to 10000 nM |  |
| C#CCOCCOCCOC(=O)NC(Cc1ccc(NC(=N)N)cc1)P(=O)(Oc1ccccc1)Oc1ccccc1 (stereo not drawn) [UPA2, reference compound] |  |  | < 100 nM |  |  |  |  |  | No | 2.5 to 10 µM |  |  | > 250 µM |  | 10 to 250 µM | > 250 µM |  | 100 to 1000 nM | 10 to 250 µM |
| diphenyl ((4-guanidinophenyl)(4-methoxyphenylsulfonamido)methyl)phosphonate [Compound 132] |  |  |  |  |  |  |  |  |  | 2.5 to 10 µM | 2500 to 10000 nM | 2.5 to 10 µM | 2.5 to 10 µM | 100 to 1000 nM | 2.5 to 10 µM | 2.5 to 10 µM | 2500 to 10000 nM |  |  |
| diphenyl ((4-guanidinophenyl)(phenylsulfonamido)methyl)phosphonate [Compound 128] |  |  |  |  |  |  |  |  |  | 2.5 to 10 µM | 2500 to 10000 nM | 2.5 to 10 µM | 2.5 to 10 µM | 100 to 1000 nM | 2.5 to 10 µM | 2.5 to 10 µM |  |  |  |
